From patent US11464802B2, “3-substituted piperidine compounds for Cbl-b inhibition, and use thereof” (Nurix Therapeutics, Inc., priority 2019, dated 2022)
pIC50: −log10 of the molar value. Like-named read-outs stand apart in the source and are kept apart here.

Columns and labels:
[1] = system: primary human total T-cells; assay: Primary human total T-cell activation: IL-2 secretion, Biological Example 2; type: cell-based; conditions: 48 hours, fold change over baseline; for fold induction at 0.3 µM: inhibitor 0.3 μM; for fold induction at 1 µM: inhibitor 1 μM; for fold induction at 3 µM: inhibitor 3 μM
Cbl-b = Cbl-b (Homo sapiens (Human), UniProt Q13191); assay: Cbl-b displacement assay (Cbl-b inhibition assay), TR-FRET probe displacement, Biological Example 1; type: binding
Cbl-b, sequence (Q13191 36-427): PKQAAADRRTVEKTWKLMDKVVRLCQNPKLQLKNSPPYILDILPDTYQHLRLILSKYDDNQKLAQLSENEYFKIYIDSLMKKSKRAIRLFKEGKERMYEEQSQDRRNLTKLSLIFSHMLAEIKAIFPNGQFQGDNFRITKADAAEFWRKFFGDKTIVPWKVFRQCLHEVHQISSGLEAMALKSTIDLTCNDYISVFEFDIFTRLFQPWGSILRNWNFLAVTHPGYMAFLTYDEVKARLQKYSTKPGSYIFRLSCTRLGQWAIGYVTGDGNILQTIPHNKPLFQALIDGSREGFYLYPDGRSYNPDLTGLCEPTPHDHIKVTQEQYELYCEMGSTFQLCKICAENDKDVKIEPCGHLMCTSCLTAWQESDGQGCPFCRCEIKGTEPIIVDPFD
Experimental: Candidate compounds were evaluated for their ability to bind and inhibit Cbl-b, an E3 ubiquitin-protein ligase, as evidenced by their ability to displace a fluorophore-labeled probe (Example 46) bound to Cbl-b.
The ability of candidate compounds to displace a known inhibitor and thereby inhibit Cbl-b activity was measured by monitoring the interaction of Cbl-b with a fluorophore-labeled probe in the presence of the candidate compound. A truncated variant of Cbl-b (UniProt number Q13191; SEQ ID NO:1) containing an Avitag at its N-terminus was co-expressed with BirA biotin ligase and purified using a standard protocol (see Dou et al., Nature Structural and Molecular Biology 8: 982-987, 2013; Avidity LLC).
Fluorescently-labeled inhibitor probe was synthesized and tagged with BODIPY FL (Example 46). Cbl-b displacement assays were performed in a 384-well plate at room temperature in a 10 μL reaction volume by pre-incubating 0.5 nM Cbl-b or 0.125 nM Cbl-b (final concentration, indicated as “High” and “Low”, respectively) in an assay buffer containing 20 mM HEPES pH 7.5, 150 mM NaCl, 0.01% Triton X-100, 0.01% BSA, and 0.5 mM TCEP in the presence of a candidate compound in 1% DMSO (final concentration) for 1 hour. After incubation in the presence of the candidate compound, the plate was incubated for an additional 1 hour in the presence of an approximate EC40 binding saturation consisting of 150 nM fluorescently-labeled inhibitor probe and 2 nM Streptavidin-Terbium (Cisbio) (final concentrations). Following the 1 hour incubation, the plates were read for TR-FRET signal at 520/620 nM using an Envision plate reader (Perkin Elmer).

[2] = system: primary human total T-cells; assay: Primary human total T-cell activation: CD25 surface staining, Biological Example 2; type: cell-based; conditions: 48 hours, fold change over baseline; for fold induction at 0.3 µM: inhibitor 0.3 μM; for fold induction at 1 µM: inhibitor 1 μM; for fold induction at 3 µM: inhibitor 3 μM
[3] = anti-CD3/anti-CD28 co-stimulation
[4] = anti-CD3/anti-CD28 co-stimulation, read-out: IL-2 secretion CD3/CD28 1 μM
[5] = anti-CD3 alone, read-out: IL-2 secretion CD3 1 μM
[6] = 0.5 nM Cbl-b final concentration (High), read-out: Cbl-b activity IC50 (High)
[7] = Cbl-b concentration (High or Low) not given, read-out: IC50 values in the Cbl-b inhibition assay of Biological Example 1
[8] = anti-CD3/anti-CD28 co-stimulation, read-out: CD25 staining CD3/CD28 1 μM
[9] = anti-CD3 alone, read-out: CD25 staining CD3 1 μM
[10] = 0.125 nM Cbl-b final concentration (Low), read-out: Cbl-b activity IC50 (Low)

| pIC50 (Cbl-b; [6]) | pIC50 (Cbl-b; [7]) | pIC50 (Cbl-b; [10]) | Structure (SMILES) | fold induction at 0.3 µM [1, 3] | fold induction at 1 µM [1, 4] | fold induction at 1 µM [1, 5] | fold induction at 3 µM ([1]; anti-CD3 alone) | fold induction at 0.3 µM [2, 3] | fold induction at 1 µM [2, 8] | fold induction at 1 µM [2, 9] | fold induction at 3 µM ([2]; anti-CD3 alone) |
| --- | --- | --- | --- | --- | --- | --- | --- | --- | --- | --- | --- |
| 8.30 to 9.00 | 8.30 to 9.00 | – | C[C@@H]1CCCN(Cc2cc3c(c(C(F)(F)F)c2)CN(c2cccc(C4(Cc5nncn5C)COC4)c2)C3=O)C1 [Compound 3, (R)-2-(3-(3-((4-methyl-4H-1,2,4-triazol-3-yl)methyl)oxetan-3-yl)phenyl)-6-((3-methylpiperidin-1-yl)methyl)-4-(trifluoromethyl)isoindolin-1-one] | 11 to 15 | > 15 | 0.34 to 0.66 | 0.34 to 0.66 | 1.25 to 1.39 | 1.25 to 1.39 | 1.05 to 1.14 | 1.05 to 1.14 |
| – | 8.30 to 9.00 | 8.30 to 9.00 | C[C@H]1CCCN(Cc2cc3c(c(C(F)(F)F)c2)CN(c2cc(C4(Cc5nncn5C)COC4)ccn2)C3=O)C1 [Compound 48, (S)-2-(4-(3-((4-methyl-4H-1,2,4-triazol-3-yl)methyl)oxetan-3-yl)pyridin-2-yl)-6-((3-methylpiperidin-1-yl)methyl)-4-(trifluoromethyl)isoindolin-1-one] | > 15 | > 15 | > 0.66 | > 0.66 | > 1.39 | > 1.39 | > 1.14 | > 1.14 |
| 8.30 to 9.00 | – | – | C[C@@H]1CN(Cc2cc3c(c(C(F)(F)F)c2)CN(c2cccc(C4(Cc5nncn5C)COC4)c2)C3=O)C[C@H](C)C1(F)F [Compound 17, 6-(((cis)-4,4-difluoro-3,5-dimethylpiperidin-1-yl)methyl)-2-(3-(3-((4-methyl-4H-1,2,4-triazol-3-yl)methyl)oxetan-3-yl)phenyl)-4-(trifluoromethyl)isoindolin-1-one] | 11 to 15 | > 15 | > 0.66 | > 0.66 | > 1.39 | 1.25 to 1.39 | > 1.14 | > 1.14 |
| – | 8.30 to 9.00 | 8.30 to 9.00 | C[C@@H]1CN(Cc2cc3c(c(C4CC4)n2)CN(c2cccc(C4(Cc5nncn5C(F)F)COC4)c2)C3=O)CCC1(F)F [Compound 38, 4-cyclopropyl-6-{[(3R)-4,4-difluoro-3-methylpiperidin-1-yl]methyl}-2-[3-(3-{[4-(difluoromethyl)-1,2,4-triazol-3-yl]methyl}oxetan-3-yl)phenyl]-3H-pyrrolo[3,4-c]pyridin-1-one] | > 15 | > 15 | > 0.66 | > 0.66 | > 1.39 | > 1.39 | > 1.14 | > 1.14 |
| 7.00 to 8.29 | 7.00 to 8.29 | – | C[C@@H]1CN(Cc2cc3c(c(C(F)(F)F)c2)CN(c2cc(C4(Cc5nncn5C)COC4)cc(C4CC4)n2)C3=O)CCC1(F)F [Compound 30, (R)-2-(6-cyclopropyl-4-(3-((4-methyl-4H-1,2,4-triazol-3-yl)methyl)oxetan-3-yl)pyridin-2-yl)-6-((4,4-difluoro-3-methylpiperidin-1-yl)methyl)-4-(trifluoromethyl)isoindolin-1-one] | > 15 | > 15 | 0.34 to 0.66 | 0.34 to 0.66 | < 1.24 | < 1.24 | < 1.04 | < 1.04 |
| – | – | 7.00 to 8.29 | Cn1cnnc1CC1(c2cccc(N3Cc4c(cc(CN5CCCC(C)(F)C5)cc4C(F)(F)F)C3=O)c2)COC1 (stereo in doubt) [Compound 6, (S)-6-((3-fluoro-3-methylpiperidin-1-yl)methyl)-2-(3-(3-((4-methyl-4H-1,2,4-triazol-3-yl)methyl)oxetan-3-yl)phenyl)-4-(trifluoromethyl)isoindolin-1-one] | < 10 | > 15 | < 0.33 | 0.34 to 0.66 | > 1.39 | > 1.39 | > 1.14 | > 1.14 |
| 8.30 to 9.00 | 8.30 to 9.00 | – | Cn1cnnc1CC1(c2cccc(N3Cc4c(cc(CN5CCC(F)(F)[C@H](C#N)C5)cc4C(F)(F)F)C3=O)c2)COC1 [Compound 11, (S)-4,4-difluoro-1-((2-(3-(3-((4-methyl-4H-1,2,4-triazol-3-yl)methyl)oxetan-3-yl)phenyl)-3-oxo-7-(trifluoromethyl)isoindolin-5-yl)methyl)piperidine-3-carbonitrile] | < 10 | 11 to 15 | < 0.33 | < 0.33 | 1.25 to 1.39 | 1.25 to 1.39 | < 1.04 | < 1.04 |
| > 9.00 | > 9.00 | – | Cn1cnnc1CC1(c2cccc(N3Cc4c(cc(CN5CCC(F)(F)[C@@H](C#N)C5)cc4C(F)(F)F)C3=O)c2)COC1 [Compound 10, (R)-4,4-difluoro-1-((2-(3-(3-((4-methyl-4H-1,2,4-triazol-3-yl)methyl)oxetan-3-yl)phenyl)-3-oxo-7-(trifluoromethyl)isoindolin-5-yl)methyl)piperidine-3-carbonitrile] | 11 to 15 | 11 to 15 | < 0.33 | < 0.33 | 1.25 to 1.39 | 1.25 to 1.39 | 1.05 to 1.14 | 1.05 to 1.14 |
| > 9.00 | > 9.00 | – | CC1CN(Cc2cc3c(c(C(F)(F)F)c2)CN(c2cccc(C4(Cc5nncn5C)CC4)c2)C3=O)CCC1(F)F (stereo not shown) [Compound 24, 6-((4,4-difluoro-3-methylpiperidin-1-yl)methyl)-2-(3-(1-((4-methyl-4H-1,2,4-triazol-3-yl)methyl)cyclopropyl)phenyl)-4-(trifluoromethyl)isoindolin-1-one] | – | – | – | – | – | – | – | – |
| – | – | 8.30 to 9.00 | Cn1cnnc1CC1(c2cccc(N3Cc4c(cc(CN5C[C@@H](C(F)(F)F)C[C@H](C(F)(F)F)C5)cc4C(F)(F)F)C3=O)c2)COC1 (relative stereo) [Compound 20, trans-6-{[3,5-bis(trifluoromethyl)piperidin-1-yl]methyl}-2-(3-{3-[(4-methyl-1,2,4-triazol-3-yl)methyl]oxetan-3-yl}phenyl)-4-(trifluoromethyl)-3H-isoindol-1-one] | – | – | – | – | – | – | – | – |
| 8.30 to 9.00 | 8.30 to 9.00 | – | CC1CN(Cc2cc3c(c(C(F)(F)F)c2)CN(c2cccc(C4([C@@H](F)c5nncn5C)CC4)c2)C3=O)CCC1(F)F (stereo partly drawn) [Compound 26, 6-((4,4-difluoro-3-methylpiperidin-1-yl)methyl)-2-(3-(1-((R)-fluoro(4-methyl-4H-1,2,4-triazol-3-yl)methyl)cyclopropyl)phenyl)-4-(trifluoromethyl)isoindolin-1-one] | – | – | – | – | – | – | – | – |
| 8.30 to 9.00 | 8.30 to 9.00 | – | CC1CN(Cc2cc3c(c(C(F)(F)F)c2)CN(c2cccc(C4([C@H](F)c5nncn5C)CC4)c2)C3=O)CCC1(F)F (stereo partly drawn) [Compound 25, 6-((4,4-difluoro-3-methylpiperidin-1-yl)methyl)-2-(3-(1-((S)-fluoro(4-methyl-4H-1,2,4-triazol-3-yl)methyl)cyclopropyl)phenyl)-4-(trifluoromethyl)isoindolin-1-one] | – | – | – | – | – | – | – | – |
